Results published in patent US9023817B2, “Use of albiflorin for anti-depression” (priority 2009, dated 2015).

Key:
[1] = test system: serotonin in the brain of rat; assay: Serotonin in the brain of rat with chronic stress (HPLC-ECD, prefrontal cortex); assay type: in vivo, SD rats; conditions: 3.5 mg/kg/d gavage for 21 days
Description: (§1) After being fed without water for 24 hours, SD rats were administered with 1% aqueous sucrose, the consumption of aqueous sucrose was measured for 1 hour. The rats were randomly divided into six groups (n=12 for each group) according to the consumptions of aqueous sucrose, i.e. vehicle group, model group, positive control group of Fluoroxetine Hydrochloride (2.5 mg/kg/d), high-dose group (14 mg/kg/day), medium-dose group (7 mg/kg/day), and low-dose group (3.5 mg/kg/day) of Albiflorin. The gavage was carried out along with the model establishment, once a day, for 21 days. Each group was administered at a dose of 1.0 ml/100 g weight, and weighed once a week.
(§2) The rats were fed at 6/cage as vehicle group, with normal diets and drinking water, and without any stimulation.
(§3) The rats were fed at 1/cage as the other five groups, and subjected to unpredicted stress stimulations for 21 days, including: swimming in ice water, drying, tail nipping, wet feeding, reversed day and night, fasting, water deprivation and the like. One kind of stimulations was randomly given for each day.
(§4) The animal was executed by decapitation, the brain of it was quickly stripped on the ice, the prefrontal cortex was taken out, then placed into frozen tissue tube after weighting, rapidly frozen with liquid nitrogen, and placed into the refrigerator at −70° C. until test.

[2] = test system: rats with chronic stress induced depression model; assay: Body weights of rats with chronic stress induced depression (CUMS); assay type: in vivo, SD rats
Description: (§5) The gavage was carried out along with the model establishment, once a day, for 21 days. […] Referring to the methods in the literature (Xu Jing, Li Xiaoqiu, Establishment and evaluation of the model of chronic stress induced depression, Chinese Journal of Behavioral Medical Science, 2003, 12(1): 14 16), the model was established (i.e., establishing animal model of anti-depression by means of CUMS): the foot electric shock (voltage: […] (5 minutes), drying at 45° C. (5 minutes), tail nipping (1 min), wet feeding (wet mat), reversed day and night (24 hours), fasting (24 hours), water deprivation (24 hours) were randomly scheduled within 21 days, one kind of stimulations was given for each day, except for the animals of vehicle group, the others were separately caged with free diet, at the room temperature of (24±1)° C., with the relative humidity of (60±10)%. All parameters to be tested were expressed as Mean±SD (X±s), and tested by means of analysis of variance (ANOVA) in SPSS 12.0 software (purchased from SPSS Inc., USA), p<0.05 means that there was a significant difference.

[3] = test system: noradrenalin in the brain of rat; assay: Noradrenalin in the brain of rat with chronic stress (HPLC-ECD, prefrontal cortex); assay type: in vivo, SD rats; conditions: 3.5 mg/kg/d gavage for 21 days
Description: as §1, §2, §3, §4

ICR mice [4] = assay: Forced swimming test in mice; assay type: in vivo; conditions: 3.5 mg/kg/d by gavage for two days; 1 h after administration; last 4 min
Description: Each group was administered by gavage at a dose of 0.2 ml/10 g weight, for two days, deionized water was administered to vehicle group.
In the second day, 1 h after the administration, the mice were placed separately into a water cylinder with 20 cm of height, 18 cm of diameter, 10 cm of depth, 23±2° C. of water temperature; observing each for 6 min, after 2 min of adaption, the immobility time over the last 4 min was recorded.
The data was expressed as x±s, analyzed by SPSS 13.0 statistical software by means of One-Way ANOVA test, the homogeneity of variance was tested by LSD and SNK test.

ICR mice [5] = assay: Acute toxicity test of Albiflorin; assay type: in vivo
Description: SFP level ICR mice were administered with Albiflorin at a dose of 8.4 g/kg, the observation time was 14 days.
The nature and rate of breath, behaviors (especially whether there was any vomit-causing phenomenon), actions, color and tension of fur, abdominal shape, hardness of feces, body weight and the like were observed.

[6] = test system: rats with chronic stress induced depression model; assay: Open-field test, chronic stress induced depression; assay type: in vivo, SD rats; conditions: 3.5 mg/kg/day gavage for 21 days; 3 minutes
Description: as §5, with “(60±10)%. The open-field device was of 40 cm in height, 80 cm in both length and width, without cap, the inner walls and the bottom of the device are black, and the bottom was divided into 25 squares with equal area. The numbers of squares that the animals pass through were designated as the score of horizontal movement, and the numbers of standing (with the forelegs above 1 cm away from the ground) were designated as the score of vertical movement. Each animal was measured for one time, 3 minutes for each measurement.” for “(60±10)%.”

[7] = test system: rats with chronic stress induced depression model; assay: Consumption of 1% aqueous sucrose, chronic stress induced depression; assay type: in vivo, SD rats; conditions: 1% aqueous sucrose for 1 hour
Description: The gavage was carried out along with the model establishment, once a day, for 21 days. […] Referring to the methods in the literature (Xu Jing, Li Xiaoqiu, Establishment and evaluation of the model of chronic stress induced depression, Chinese Journal of Behavioral Medical Science, 2003, 12(1): 14 16), the model was established (i.e., establishing animal model of anti-depression by means of CUMS): the foot electric shock (voltage: […] (5 minutes), drying at 45° C. […] All parameters to be tested were expressed as Mean±SD (X±s), and tested by means of analysis of variance (ANOVA) in SPSS 12.0 software (purchased from SPSS Inc., USA), p<0.05 means that there was a significant difference.

C[C@]12C[C@@H](O)[C@@H]3C[C@@]1(O[C@@H]1O[C@H](CO)[C@@H](O)[C@H](O)[C@H]1O)[C@@]3(COC(=O)c1ccccc1)C(=O)O2 [Albiflorin]
5-HT [1]: 188.43 ± 67.91 | body weights ([2]; 3.5 mg/kg/day gavage, Day 0): 256.83 ± 11.49 g | body weights ([2]; 3.5 mg/kg/day gavage, Day 7): 265.65 ± 11.23 g | body weights ([2]; 3.5 mg/kg/day gavage, Day 14): 270.75 ± 18.15 g | body weights ([2]; 3.5 mg/kg/day gavage, Day 21): 271.07 ± 19.06 g | body weights ([2]; 7 mg/kg/day gavage, Day 0): 250.18 ± 13.45 g | body weights ([2]; 7 mg/kg/day gavage, Day 7): 265.65 ± 12.44 g | body weights ([2]; 14 mg/kg/day gavage, Day 0): 255.84 ± 11.69 g | body weights ([2]; 14 mg/kg/day gavage, Day 7): 268.11 ± 17.50 g | NA [3]: 174.59 ± 60.35 | Immobility Time (ICR mice [4]): 44.85 ± 29.695 s | safe dosage as multiple of the clinical dosage (ICR mice [5]; 8.4 g/kg body weight, mice, by gavage): approximately 600 times | body weight compared with the vehicle group (ICR mice [5]; 8.4 g/kg by gavage, Day 7 and Day 14): without significant difference | abnormal symptoms and death (ICR mice [5]; 8.4 g/kg by gavage, observation for 14 days): neither any abnormal symptom nor any death was found | dosage at which still safe (ICR mice [5]; mice, by gavage): 8.4 g/kg body weight | Score of horizontal movement [6]: 21.42 ± 20.38 | Score of vertical movement [6]: 4.67 ± 6.87 | comsumption of aqeous sucrose ([7]; 3.5 mg/kg/day gavage, Day 0): 12.75 ± 5.24 mL | comsumption of aqeous sucrose ([7]; 3.5 mg/kg/day gavage, Day 7): 12.67 ± 5.42 mL | comsumption of aqeous sucrose ([7]; 3.5 mg/kg/day gavage, Day 14): 11.83 ± 5.15 mL | comsumption of aqeous sucrose ([7]; 3.5 mg/kg/day gavage, Day 21): 11.92 ± 3.96 mL | comsumption of aqeous sucrose ([7]; 7 mg/kg/day gavage, Day 0): 12.67 ± 5.37 mL | comsumption of aqeous sucrose ([7]; 7 mg/kg/day gavage, Day 7): 13.42 ± 5.37 mL | comsumption of aqeous sucrose ([7]; 14 mg/kg/day gavage, Day 0): 12.50 ± 5.32 mL | comsumption of aqeous sucrose ([7]; 14 mg/kg/day gavage, Day 7): 14.08 ± 3.65 mL | comsumption of aqeous sucrose ([7]; 14 mg/kg/day gavage, Day 14): 13.00 ± 3.74 mL
